Assay results published in US9938236B2, “Antiviral agents against HBV infection” (DREXEL UNIVERSITY, priority 2012, dated 2018).
pEC50: −log10 of the molar value.

Tests used:
HBV [1] = test: Antiviral activity in AML12HBV10 cells (HBV DNA dot-blot hybridization); type: cell-based; settings: Hepatitis B virus, Table 33, scaffold (XIV) drawing 940, 48 hours
Method: The antiviral efficacy of the compounds of the disclosure, as presented in Tables 21 through 39 were determined in AML12HBV10 cells. AML12HBV10 is an immortalized murine hepatocyte (AML12)-derived stable cell line that supports robust HBV replication in a tetracycline inducible manner (Xu et al.). The cells were seeded into 96 well plates at a density of 2×10^4 cells per well and cultured in DMEM/F12 media with 10% fetal bovine serum in the absence of tetracycline to allow pgRNA transcription and HBV DNA replication. One day after seeding, cells were left untreated or treated with a serial dilution of testing compounds, ranging from 50 μM to 0.39 μM, for 48 hours. Cells were then lysed by adding into each well of 100 μl lysis buffer containing 10 mM Tris-HCl (pH 7.6), 1 mM EDTA, 100 mM NaCl and 1% NP-40 and incubated at 37° C. for 30 minutes. Half amount (50 μl) of cell lysate from each well was combined with equal volume of denaturing solution containing 0.5N NaOH and 1.5M NaCl. After 5 minute incubation, 100 μl of neutralization solution (1M Tris-HCl, pH 7.4, 1.5M NaCl) was added into each well. The denatured cell lysates (totally 200 μl) were applied onto Nylon membrane using 96-well dot-blot manifold (Biorad). HBV DNA in the cell lysates were determined by dot-blot hybridization with alpha-^32P-UTP-labelled riboprobe specific for HBV minus strand DNA.

HBV [2] = test: Antiviral activity in HepDES19 cells (core-associated HBV DNA, Southern blot hybridization); type: cell-based; settings: Hepatitis B virus, 144 h, Table 33, scaffold (XIV) drawing 940, 6 days
Method: Two days after seeding, the cells were mock-treated or treated with a serial dilution of compounds of the disclosure, ranging from 10 μM to 0.018 μM, for 6 days in the absence of tetracycline. Upon the completion of treatment, cells were lysed by adding into each well of the 12-well plates 0.5 ml of lysis buffer containing 10 mM Tris-HCl (pH 8.0), 1 mM EDTA, 1% NP40 and 2% sucrose and incubating at 37° C. for 10 minutes. Cell debris and nuclei were removed by centrifugation and the supernatant was mixed with 130 μl of 35% polyethylene glycol (PEG) 8000 containing 1.5 M NaCl. After 1 hour incubation in ice, viral nucleocapsids were pelleted by centrifugation at 6,000×g for 5 min at 4° C., followed by 1 hour digestion at 37° C. in 400 μl of digestion buffer containing 0.5 mg/ml pronase (Calbiochem), 0.5% SDS, 150 mM NaCl, 25 mM Tris-HCl (pH 8.0) and 10 mM EDTA. The digestion mixture was extracted twice with phenol and DNA was precipitated with ethanol, dissolved in TE buffer (10 mM Tris-HC 1, pH 8.0; 0.1 mM EDTA). One half of the DNA sample from each well was resolved by electrophoresis into a 1.5% agarose gel. The gel was then subjected to denaturation in a solution containing 0.5 M NaOH and 1.5 M NaCl, followed by neutralization in a buffer containing 1 M Tris-HCl (pH7.4) and 1.5 M NaCl. DNA was then blotted onto Hybond-XL membrane (GE Health care) in 20×SSC buffer.

SMILES	pEC50 (HBV [1])	pEC50 (HBV [2])
CC(C)[C@@H](C)NS(=O)(=O)c1cc(C(=O)Nc2ccc(F)c(F)c2)c(F)cc1F [XIV: A=H, B=F, C=H, D=F, (R)-N-(3,4-Difluorophenyl)-2,4-difluoro-5-(N-(3-methylbutan-2-yl)sulfamoyl)benzamide]	5.30 to 6.00	–
Cc1ccc(S(=O)(=O)N[C@H](C)C(C)C)cc1C(=O)Nc1ccc(F)c(F)c1 [XIV: A=H, B=Me, C=H, D=H, (R)-N-(3,4-Difluorophenyl)-2-methyl-5-(N-(3-methylbutan-2-yl)sulfamoyl)benzamide]	> 6.00	> 6.00
COc1ccc(S(=O)(=O)N[C@H](C)C(C)C)cc1C(=O)Nc1ccc(F)c(F)c1 [XIV: A=H, B=OMe, C=H, D=H, (R)-N-(3,4-Difluorophenyl)-2-methoxy-5-(N-(3-methylbutan-2-yl)sulfamoyl)benzamide]	> 6.00	> 6.00
CC(C)[C@@H](C)NS(=O)(=O)c1ccc(Cl)c(C(=O)Nc2ccc(F)c(F)c2)c1 [XIV: A=H, B=Cl, C=H, D=H, (R)-2-chloro-N-(3,4-Difluorophenyl)-5-(N-(3-methylbutan-2-yl)sulfamoyl)benzamide]	> 6.00	–
